Values after ≈ are worked out from the molar mass of the structure shown. Where two headings read alike, the source gives them in different places.
Experiments:
[1] = tested on: Staphylococcus epidermidis CCM 4418 (ATCC 12228); assay: Antibacterial microdilution broth (EUCAST); format: cell-based; conditions: read-out: MIC Staphylococcus epidermidis
[2] = tested on: Mycobacterium kansasii DSM 44,162 (ATCC 12478); assay: Antimycobacterial microdilution (resazurin) vs M. kansasii; format: cell-based; conditions: read-out: MIC M. kansasii
[3] = tested on: Mycobacterium tuberculosis H37Ra ITM-M006710 (ATCC 9431); assay: Antimycobacterial microdilution (resazurin) vs Mtb H37Ra; format: cell-based
[4] = tested on: Escherichia coli CCM 3954 (ATCC 25922); assay: Antibacterial microdilution broth (EUCAST); format: cell-based; conditions: Escherichia coli, read-out: MIC Escherichia coli
[5] = tested on: Aspergillus flavus CCM 8363; assay: Antifungal microdilution broth (EUCAST); format: cell-based; conditions: Aspergillus flavus, CCM8363, read-out: MIC Aspergillus flavus
[6] = tested on: Lichtheimia corymbifera CCM 8077; assay: Antifungal microdilution broth (EUCAST); format: cell-based; conditions: Lichtheimia corymbifera, CCM8077, read-out: MIC Lichtheimia corymbifera
[7] = tested on: Mycobacterium avium DSM 44,156 (ATCC 25291); assay: Antimycobacterial microdilution (resazurin) vs M. avium; format: cell-based; conditions: Mycobacterium avium
[8] = tested on: Candida krusei CCM 8271 (ATCC 6258); assay: Antifungal microdilution broth (EUCAST); format: cell-based; conditions: Pichia kudriavzevii, read-out: MIC Candida krusei
[9] = tested on: Aspergillus fumigatus ATCC 204305; assay: Antifungal microdilution broth (EUCAST); format: cell-based; conditions: Aspergillus fumigatus, ATCC204305, read-out: MIC Aspergillus fumigatus
[10] = tested on: Acinetobacter baumannii DSM 30007 (ATCC 19606); assay: Antibacterial microdilution broth (EUCAST); format: cell-based; conditions: read-out: MIC Acinetobacter baumannii
[11] = tested on: Staphylococcus aureus subsp. aureus CCM 4223 (ATCC 29213); assay: Antibacterial microdilution broth (EUCAST); format: cell-based; conditions: read-out: MIC Staphylococcus aureus subsp. aureus
[12] = tested on: Pseudomonas aeruginosa CCM 3955 (ATCC 27853); assay: Antibacterial microdilution broth (EUCAST); format: cell-based; conditions: read-out: MIC Pseudomonas aeruginosa
[13] = tested on: Mycolicibacterium aurum DSM 43,999 (ATCC 23366); assay: Antimycobacterial microdilution (resazurin) vs M. aurum; format: cell-based; conditions: Middlebrook 7H9, resazurin, read-out: MIC M. aurum
[14] = tested on: Enterococcus faecalis CCM 4224 (ATCC 29212); assay: Antibacterial microdilution broth (EUCAST); format: cell-based; conditions: read-out: MIC Enterococcus faecalis
[15] = tested on: Klebsiella pneumoniae CCM 4415 (ATCC 10031); assay: Antibacterial microdilution broth (EUCAST); format: cell-based; conditions: Klebsiella pneumoniae, read-out: MIC Klebsiella pneumoniae
[16] = tested on: Mycolicibacterium smegmatis DSM 43,465 (ATCC 607); assay: Antimycobacterial microdilution (resazurin) vs M. smegmatis; format: cell-based; conditions: Middlebrook 7H9, resazurin, read-out: MIC M. smeg.
[17] = tested on: Candida tropicalis CCM 8264 (ATCC 750); assay: Antifungal microdilution broth (EUCAST); format: cell-based; conditions: read-out: MIC Candida tropicalis
[18] = tested on: Mycobacterium tuberculosis H37Rv CNCTC My 331/88 (ATCC 27294); assay: Microplate Alamar Blue assay vs Mtb H37Rv; format: cell-based; conditions: Mycobacterium tuberculosis
[19] = tested on: Trichophyton interdigitale CCM 8377 (ATCC 9533); assay: Antifungal microdilution broth (EUCAST); format: cell-based; conditions: Trichophyton interdigitale, read-out: MIC Trichophyton interdigitale
[20] = tested on: Candida parapsilosis CCM 8260 (ATCC 22019); assay: Antifungal microdilution broth (EUCAST); format: cell-based; conditions: Lodderomyces parapsilosis, read-out: MIC Candida parapsilosis
[21] = tested on: HepG2 cell line; assay: Cytotoxicity screening, CellTiter 96 assay; conditions: for IC50: Homo sapiens, HepG2, 24 h, read-out: IC50 HepG2; for toxicity to HepG2 up to highest tested concentration: tested up to 500 µM (2, 3), 250 µM (12, 17), 100 µM (6, 7, 11) because of solubility
[22] = tested on: methicillin-resistant Staphylococcus aureus subsp. aureus (MRSA) CCM 4750 (ATCC 43300); assay: microbe, parasite or virus in culture; format: cell-based; conditions: read-out: MIC Methicillin-resistant Staphylococcus aureus subsp. aureus
[23] = tested on: Candida albicans CCM 8320 (ATCC 24433); assay: Antifungal microdilution broth (EUCAST); format: cell-based; conditions: Candida albicans, read-out: MIC Candida albicans
[24] = Middlebrook 7H9, resazurin, recalculated from µg/mL, read-out: MIC Mtb H37Ra
[25] = Middlebrook 7H9, resazurin, read-out: MIC M. avium
[26] = pH 6.6, MABA, Middlebrook 7H9 pH 6.6, recalculated from µg/mL, read-out: MIC Mtb H37Rv

## O=C(Nc1ccc2c(c1)B(O)OC2)c1cnccn1 [Compound 1, N-(1-hydroxy-1,3-dihydrobenzo[c][1,2]oxaborol-6-yl)pyrazine-2-carboxamide]
[1]; 24h incubation
  MIC: 500 µM (≈ 128 µg/mL)
[1]; 48h incubation
  MIC: 500 µM (≈ 128 µg/mL)
[2]; Middlebrook 7H9, resazurin
  MIC: 30.6 µM (≈ 7.81 µg/mL)
[3]; [24]
  MIC: 123 µM (≈ 31.3 µg/mL)
[4]; 24h incubation
  MIC: > 500 µM
[4]; 48h incubation
  MIC: > 500 µM
[5]; 24h incubation
  MIC: > 500 µM
[5]; 48h incubation
  MIC: > 500 µM
[6]; 24h incubation
  MIC: > 500 µM
[6]; 48h incubation
  MIC: > 500 µM
[7]; [25]
  MIC: 123 µM (≈ 31.3 µg/mL)
[8]; 24h incubation
  MIC: > 500 µM
[8]; 48h incubation
  MIC: > 500 µM
[9]; 24h incubation
  MIC: > 500 µM
[9]; 48h incubation
  MIC: > 500 µM
[10]; 24h incubation
  MIC: > 500 µM
[10]; 48h incubation
  MIC: > 500 µM
[11]; 24h incubation
  MIC: 250 µM (≈ 63.8 µg/mL)
[11]; 48h incubation
  MIC: 250 µM (≈ 63.8 µg/mL)
[12]; 24h incubation
  MIC: > 500 µM
[12]; 48h incubation
  MIC: > 500 µM
[13]
  MIC: 15.3 µM (≈ 3.91 µg/mL)
[14]; 24h incubation
  MIC: > 500 µM
[14]; 48h incubation
  MIC: > 500 µM
[15]; 24h incubation
  MIC: > 500 µM
[15]; 48h incubation
  MIC: > 500 µM
[16]
  MIC: 30.6 µM (≈ 7.81 µg/mL)
[17]; 24h incubation
  MIC: > 500 µM
[17]; 48h incubation
  MIC: > 500 µM
other
  melting point: 261.3 to 262.3 °C
[18]; [26]
  MIC: 49 µM (≈ 12.5 µg/mL)
[19]; 72h incubation
  MIC: > 500 µM
[19]; 120h incubation
  MIC: > 500 µM
[20]; 24h incubation
  MIC: > 500 µM
[20]; 48h incubation
  MIC: > 500 µM
[21]
  IC50: > 1000 µM
[22]; 24 h
  MIC: 500 µM (≈ 128 µg/mL)
[22]; 48 h
  MIC: 500 µM (≈ 128 µg/mL)
[23]; 24h incubation
  MIC: > 500 µM
[23]; 48h incubation
  MIC: > 500 µM

## Cc1cnc(C(=O)Nc2ccc3c(c2)B(O)OC3)cn1 [Compound 2, N-(1-hydroxy-1,3-dihydrobenzo[c][1,2]oxaborol-6-yl)-5-methylpyrazine-2-carboxamide]
[1]; 24h incubation
  MIC: 500 µM (≈ 135 µg/mL)
[1]; 48h incubation
  MIC: 500 µM (≈ 135 µg/mL)
[2]
  MIC: 58.1 µM (≈ 15.6 µg/mL)
[3]; [24]
  MIC: 58.1 µM (≈ 15.6 µg/mL)
[4]; 24h incubation
  MIC: > 500 µM
[4]; 48h incubation
  MIC: > 500 µM
[5]; 24h incubation
  MIC: > 500 µM
[5]; 48h incubation
  MIC: > 500 µM
[6]; 24h incubation
  MIC: > 500 µM
[6]; 48h incubation
  MIC: > 500 µM
[7]; [25]
  MIC: 58.1 µM (≈ 15.6 µg/mL)
[8]; 24h incubation
  MIC: > 500 µM
[8]; 48h incubation
  MIC: > 500 µM
[9]; 24h incubation
  MIC: > 500 µM
[9]; 48h incubation
  MIC: > 500 µM
[10]; 24h incubation
  MIC: > 500 µM
[10]; 48h incubation
  MIC: > 500 µM
[11]; 24h incubation
  MIC: 250 µM (≈ 67.3 µg/mL)
[11]; 48h incubation
  MIC: 250 µM (≈ 67.3 µg/mL)
[12]; 24h incubation
  MIC: > 500 µM
[12]; 48h incubation
  MIC: > 500 µM
[13]
  MIC: 14.5 µM (≈ 3.91 µg/mL)
[14]; 24h incubation
  MIC: > 500 µM
[14]; 48h incubation
  MIC: > 500 µM
[15]; 24h incubation
  MIC: > 500 µM
[15]; 48h incubation
  MIC: > 500 µM
[16]
  MIC: 29 µM (≈ 7.81 µg/mL)
[17]; 24h incubation
  MIC: > 500 µM
[17]; 48h incubation
  MIC: > 500 µM
other
  melting point: 215 to 216.1 °C
[18]; [26]
  MIC: 46.5 µM (≈ 12.5 µg/mL)
[19]; 72h incubation
  MIC: > 500 µM
[19]; 120h incubation
  MIC: > 500 µM
[20]; 24h incubation
  MIC: > 500 µM
[20]; 48h incubation
  MIC: > 500 µM
[21]
  IC50: > 500 µM
  toxicity to HepG2 up to highest tested concentration: non-toxic
[22]; 24 h
  MIC: > 500 µM
[22]; 48 h
  MIC: > 500 µM
[23]; 24h incubation
  MIC: > 500 µM
[23]; 48h incubation
  MIC: > 500 µM

## Cc1nccnc1C(=O)Nc1ccc2c(c1)B(O)OC2 [Compound 3, N-(1-hydroxy-1,3-dihydrobenzo[c][1,2]oxaborol-6-yl)-3-methylpyrazine-2-carboxamide]
[1]; 24h incubation
  MIC: > 500 µM
[1]; 48h incubation
  MIC: > 500 µM
[2]; Middlebrook 7H9, resazurin
  MIC: 58.1 µM (≈ 15.6 µg/mL)
[3]; read-out: MIC Mtb H37Ra, Middlebrook 7H9, resazurin, recalculated from µg/mL
  MIC: > 1850 µM
[4]; 24h incubation
  MIC: > 500 µM
[4]; 48h incubation
  MIC: > 500 µM
[5]; 24h incubation
  MIC: > 500 µM
[5]; 48h incubation
  MIC: > 500 µM
[6]; 24h incubation
  MIC: > 500 µM
[6]; 48h incubation
  MIC: > 500 µM
[7]; read-out: MIC M. avium, Middlebrook 7H9, resazurin
  MIC: > 1850 µM
[8]; 24h incubation
  MIC: > 500 µM
[8]; 48h incubation
  MIC: > 500 µM
[9]; 24h incubation
  MIC: > 500 µM
[9]; 48h incubation
  MIC: > 500 µM
[10]; 24h incubation
  MIC: > 500 µM
[10]; 48h incubation
  MIC: > 500 µM
[11]; 24h incubation
  MIC: > 500 µM
[11]; 48h incubation
  MIC: > 500 µM
[12]; 24h incubation
  MIC: > 500 µM
[12]; 48h incubation
  MIC: > 500 µM
[13]
  MIC: 14.5 µM (≈ 3.91 µg/mL)
[14]; 24h incubation
  MIC: > 500 µM
[14]; 48h incubation
  MIC: > 500 µM
[15]; 24h incubation
  MIC: > 500 µM
[15]; 48h incubation
  MIC: > 500 µM
[16]
  MIC: 14.5 µM (≈ 3.91 µg/mL)
[17]; 24h incubation
  MIC: > 500 µM
[17]; 48h incubation
  MIC: > 500 µM
other
  melting point: 262.9 to 264 °C
[18]; pH 6.6, read-out: MIC Mtb H37Rv, MABA, Middlebrook 7H9 pH 6.6, recalculated from µg/mL
  MIC: 92.9 µM (≈ 25 µg/mL)
[19]; 72h incubation
  MIC: > 500 µM
[19]; 120h incubation
  MIC: > 500 µM
[20]; 24h incubation
  MIC: > 500 µM
[20]; 48h incubation
  MIC: > 500 µM
[21]
  IC50: > 500 µM
  toxicity to HepG2 up to highest tested concentration: non-toxic
[22]; 24 h
  MIC: > 500 µM
[22]; 48 h
  MIC: > 500 µM
[23]; 24h incubation
  MIC: > 500 µM
[23]; 48h incubation
  MIC: > 500 µM

— publication PMC9917560, “Design, Synthesis and Antimicrobial Evaluation of New N-(1-Hydroxy-1,3-dihydrobenzo[c][1,2]oxaborol-6-yl)(hetero)aryl-2-carboxamides as Potential Inhibitors of Mycobacterial Leucyl-tRNA Synthetase” (International Journal of Molecular Sciences, 2023)
